These results are taken from patent US20250304542A1, “Fused Heterobicyclic Antiviral Agents” (Enanta Pharmaceuticals, Inc., priority 2024, published 2025).

Usually EC50 stands for the concentration needed to bring the measured effect to its halfway point.

Test [1] deals with HBV. Briefly: HBV Infection in HepG2-NTCP Cells (HBeAg AlphaLISA). The conditions noted are these: Hepatitis B virus, 192 h, read-out: Cellular EC50 (μM). The format is cell-based. As for the experimental part: HepG2-NTCP A3 cells were maintained in DMEM media supplemented with GlutaMAX™, 10% fetal bovine serum, 1% penicillin/streptomycin, and 5 μg/mL puromycin at 37° C. in a humidified atmosphere with 5% CO2 in a collagen-coated tissue culture flask.
HepG2-NTCP cells were seeded in 384 well plate containing 16,000 cells/well two days prior to the infection. On the day of infection, compounds were 3-fold serially diluted in DMSO and pre-incubated with HepG2-NTCP cells for two hours before purified HBV addition. HBV infection was carried out at 2000 GE/cell with 4% PEG, and the final concentration of DMSO is 0.5%. On day one post infection, HBV-containing media was aspirated, cells were washed once with PBS and then maintained in 2.5% DMSO containing media for the remainder of the assay.
Supernatants from infected HepG2-NTCP cells were collected at day 8 post infection, and the amount of viral antigen HBeAg was measured by HBeAg AlphaLISA detection kit (PerkinElmer) following the manufacturer's recommended protocol. Irrespective of readout, compound concentrations that reduce viral product accumulation in supernatants by 50% relative to DMSO controls (EC50) are reported. EC50 ranges are as follows: A<0.1 μM; B 0.1-1 μM; C>1 μM. A dash (-) indicates the compound was not tested.
In general terms: Alpha assays give light when donor and acceptor beads are brought close together.

Test [2] concerns the target T1, NTCP (Homo sapiens, UniProt Q14973).
T1 construct: expressed in transfected cells; host or cells: HepG2-NTCP (A3 clone, kept under puromycin)
T1 sequence (Q14973 1-349): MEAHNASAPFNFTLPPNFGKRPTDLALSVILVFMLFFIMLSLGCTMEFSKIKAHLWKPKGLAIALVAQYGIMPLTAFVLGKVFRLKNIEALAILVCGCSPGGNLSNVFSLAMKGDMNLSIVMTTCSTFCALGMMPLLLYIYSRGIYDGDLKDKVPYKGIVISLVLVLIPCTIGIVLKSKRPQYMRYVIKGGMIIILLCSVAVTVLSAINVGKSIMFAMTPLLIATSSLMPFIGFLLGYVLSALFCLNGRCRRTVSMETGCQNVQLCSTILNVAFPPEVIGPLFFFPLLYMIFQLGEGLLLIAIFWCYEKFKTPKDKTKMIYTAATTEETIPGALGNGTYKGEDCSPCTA
The experiment in a line: HepG2-NTCP preS1 Binding Competition Assay. The conditions noted are these: HepG2-NTCP cells pre-treated 2 hours, FITC-labeled myristoylated preS1 peptide co-incubated 30 minutes, cell-surface fluorescence; read-out: Cellular EC50. As for the experimental part:
Myristoylated preS1 peptide (2-48 aa) conjugated to a C-terminal FITC tag was synthesized to evaluate preS1 binding to NTCP-expressing cells. HepG2-NTCP cells seeded in 384-wells were pre-treated with compounds for 2 hours prior to the addition of FITC-labeled preS1 peptide. After co-incubation for 30 minutes, unbound FITC-preS1 peptide was washed twice with PBS, and the fluorescence of preS1-FITC bound to cell surface was detected by Envision plate reader. EC50 ranges are as follows: A<0.1 μM; B 0.1-1 μM; C>1 μM. A dash (-) indicates the compound was not tested.

Some results are limits rather than exact numbers.

Take `CN1[C@H](C2CCCCC2)CN(c2ccccc2)c2cc(Cl)c(CC[C@H](NC(=O)OC(C)(C)C)C(=O)O)cc2S1(=O)=O` [Example 12, (S)-2-((tert-butoxycarbonyl)amino)-4-((R)-7-chloro-3-cyclohexyl-2-methyl-1,1-dioxido-5-phenyl-2,3,4,5-tetrahydrobenzo[f][1,2,5]thiadiazepin-8-yl)butanoic acid]: the EC50 in test [1] was below 0.1 µM; in test [2], below 100 nM.
Consider `CN1[C@H](C2CCCCC2)CN(c2ccccc2)c2cc(Cl)c(CC[C@@H](NC(=O)OC(C)(C)C)C(=O)O)cc2S1(=O)=O` [Example 13], for which the EC50 was below 0.1 µM in test [1] and below 100 nM in test [2].
`CC(C)COC(=O)N[C@@H](CCc1cc2c(cc1Cl)N(c1ccccc1)C[C@@H](C1CCCCC1)N(C)S2(=O)=O)C(=O)O` [Example 14, (S)-4-((R)-7-chloro-3-cyclohexyl-2-methyl-1,1-dioxido-5-phenyl-2,3,4,5-tetrahydrobenzo[f][1,2,5]thiadiazepin-8-yl)-2-((isobutoxycarbonyl)amino)butanoic acid]: the half-maximal effective concentration (EC50) in test [1] was below 0.1 µM; in test [2], 100 to 1000 nM.
`CC(C)COC(=O)N[C@H](CCc1cc2c(cc1Cl)N(c1ccccc1)C[C@@H](C1CCCCC1)N(C)S2(=O)=O)C(=O)O` [Example 15]: the EC50 was below 0.1 µM in test [1] and 100 to 1000 nM in test [2].
On to `CCCCCOC(=O)N[C@@H](CCc1cc2c(cc1Cl)N(c1ccccc1)C[C@@H](C1CCCCC1)N(C)S2(=O)=O)C(=O)O` [Example 16], for which the EC50 was 0.1 to 1 µM in test [1] and 100 to 1000 nM in test [2].
In the case of `CN1[C@H](C2CCCCC2)CN(c2ccccc2)c2cc(Cl)c(CC[C@H](NC(=O)OCc3ccccc3)C(=O)O)cc2S1(=O)=O` [Example 22], the results for the EC50 in test [1] and in test [2] were 0.1 to 1 µM and 100 to 1000 nM, respectively.
For `CC(C)CS(=O)(=O)N[C@H](CCc1cc2c(cc1Cl)N(c1ccccc1)C[C@@H](C1CCCCC1)N(C)S2(=O)=O)C(=O)O` [Example 29], in that order: 0.1 to 1 µM and below 100 nM.
For `CCCCN(C)C(=O)C(=O)N[C@@H](CCc1cc2c(cc1Cl)N(c1ccccc1)C[C@@H](C1CCCCC1)N(C)S2(=O)=O)C(=O)O` [Example 32, (S)-2-(2-(butyl(methyl)amino)-2-oxoacetamido)-4-((R)-7-chloro-3-cyclohexyl-2-methyl-1,1-dioxido-5-phenyl-2,3,4,5-tetrahydrobenzo[f][1,2,5]thiadiazepin-8-yl)butanoic acid], the EC50 is below 0.1 µM in test [1] and below 100 nM in test [2].
In the same order, the values of `CCCCN(C)C(=O)C(=O)N[C@H](CCc1cc2c(cc1Cl)N(c1ccccc1)C[C@@H](C1CCCCC1)N(C)S2(=O)=O)C(=O)O` [Example 33] are 0.1 to 1 µM and 100 to 1000 nM.
Regarding `CCCCNC(=O)C(=O)N[C@@H](CCc1cc2c(cc1Cl)N(c1ccccc1)C[C@@H](C1CCCCC1)N(C)S2(=O)=O)C(=O)O` [Example 34], the figures for the half-maximal effective concentration (EC50) in test [1] and in test [2] were below 0.1 µM and below 100 nM, respectively.
For the compound `CNc1cc2c(cc1C(=O)N[C@H](C(=O)O)c1ccc(C(F)(F)F)cc1)S(=O)(=O)N(C)[C@H](C1CCCCC1)CN2c1ccccc1` [Example 39, (S)-2-((R)-3-cyclohexyl-2-methyl-7-(methylamino)-1,1-dioxido-5-phenyl-2,3,4,5-tetrahydrobenzo[f][1,2,5]thiadiazepine-8-carboxamido)-2-(4-(trifluoromethyl)phenyl)acetic acid], the results for the EC50 in test [1] and in test [2] were below 0.1 µM and below 100 nM, respectively.
As to `CNc1cc2c(cc1C(=O)N[C@H](C(=O)O)c1ccsc1)S(=O)(=O)N(C)[C@H](C1CCCCC1)CN2c1ccccc1` [Example 40], the EC50 was 0.1 to 1 µM in test [1] and below 100 nM in test [2].
For the compound `CNc1cc2c(cc1C(=O)N[C@H](C(=O)O)C1CCCCC1)S(=O)(=O)N(C)[C@H](C1CCCCC1)CN2c1ccccc1` [Example 41], the EC50 in test [1] was below 0.1 µM; in test [2] it was below 100 nM.
On to `CNc1cc2c(cc1C(=O)N[C@H](C(=O)O)c1cccc(Cl)c1)S(=O)(=O)N(C)[C@H](C1CCCCC1)CN2c1ccccc1` [Example 45], for which the EC50 in test [1] was below 0.1 µM; in test [2], below 100 nM.
